Assay results as given in patent US7069876B2, “Methods for raising pre-adult anadromous fish” (MariCal, Inc., priority 2000, dated 2006).

System: shark kidney calcium receptor (SKCaR)
Experiment: FURA-2 ratio imaging fluorescence assay in HEK cells expressing SKCaR
Type: cell-based, dogfish (Squalus acanthias)
Conditions: 10 mM amino acid or AA Mixture; extracellular Ca2+ 0.5–20 mM (FIG. 52)
Source text: Full length recombinant dogfish (Squalus acanthias) shark kidney calcium receptor ([…] NO.: 17) was expressed in human embryonic kidney […] ligated into the mammalian expression vector […] and transfected into HEK cells using standard techniques. The presence of SKCaR protein in transfected cells was verified by western blotting. Activation of SKCaR and its ability to respond to individual amino acids or mixtures thereof was quantified using a well characterized FURA-2 ratio imaging fluorescence assay where increases in intracellular Ca^2+ produced by SKCaR activation are detected and expressed as % normalized intracellular calcium response to receptor activation. Bai, M., S. et al., J. Biol. Chem., 32:19537-19545 (1996); Conigrave, A, et al., Proc. Nat. Acad. Sci. 97:4814-4819 (2000). […] Baseline extracellular Ca^2+ concentration was 0.5 mM. Aliquots of Ca^2+ were added to produce final extracellular concentrations of 2.5 mM, 5 mM, 7.5 mM, 10 mM and 20 mM Ca^2+ with changes in the fluorescence recorded.

Compound	effect on SKCaR's response to extracellular Ca2+
CC[C@H](C)[C@H](N)C(=O)O [Ile, L-Isoleucine]	increase SKCaR's response to a given Ca^2+ concentration
N[C@@H](Cc1ccccc1)C(=O)O [Phe, Phenylalanine]	increase SKCaR's response to a given Ca^2+ concentration
